The values below come from paper PMC5517562, “Design and discovery of novel monastrol-1,3,5-triazines as potent anti-breast cancer agent via attenuating Epidermal Growth Factor Receptor tyrosine kinase” (Scientific Reports, 2017).

The test system of this experiment is DMBA induced mammary tumor. The experiment can be described thus: DMBA induced mammary tumor in female Sprague-Dawley rats. In kind it is in vivo, rat. The text has this:
Encouraged by the excellent EGFR-TK inhibitory activity and anticancer effect of compound 7l against breast cancer cells which are further substantiated with docking analysis, prompted us to further analyze the effect of compound 7l in the in-vivo system. Therefore, we have utilized 7,12-Dimethylbenz(a)anthracene (DMBA), a polycyclic aromatic hydrocarbon, to induce the mammary carcinogenesis in the experimental animals to quantify the potential protective effect of compound 7l. The mechanism behind its action to induce the cancer is based on its metabolized product, i.e. the epoxide that readily forms DNA adducts which is responsible for malignant alteration. At the first instance, the effect of compound 7l was analyzed on the effect of body weight of the experimental animals.
Animal model. The female Sprague-Dawley rats (100–120 g) were obtained from the Institutional animal house after approval from the Institutional Animal Ethics Committee. The animals were kept in suitable cages with free access to food and water under a controlled temperature (24 ± 2 °C), humidity (60 ± 10%) with alternate light/dark cycle of 12 h. The entire experimental procedures involving animals were approved by the Institutional Animal Ethics Committees (IAEC) of SHUATS, in accordance and duly approved with CPCSEA (Committee for the Purpose of Control and Supervision of Experiments on Animals, Government of India. The authors confirm that all experiments were performed in accordance with relevant guidelines and regulations of SHUATS.
Initiation of breast carcinogenesis. The mammary carcinogenesis was induced in experimental rat using one-time subcutaneous administration of DMBA (25 mg) in emulsified form with the help of sunflower oil and saline to each rat.
Design of experiment. Experimental design. Total numbers of 30 animals were randomly divided into five groups and each group contains 6 animals. The various groups received different treatment as follows:
The DMBA (s.c.; 25 mg/rat) was administered to each rats near mammary gland at the end of the first week. The test drug was administered once in a day and was continued till the end of the experimental period. At the end of 16th week, the rats were fasted overnight and sacrificed by the cervical decapitation under influence of anesthesia. The blood samples were collected in and after centrifugation, the plasma was used for the further biochemical analysis. The liver and mammary tissues were excised immediately from the experimental rats and homogenized with suitable buffer, centrifuged and the resulting supernatant was used for biochemical estimations.
Biochemical Estimation. The remaining excised liver and mammary tissues were rinsed in ice-cold saline and known amount of the tissue were homogenized in 0.1 M Tris-HCl buffer (pH 7.4) at 4°C. The supernatant was collected as tissue homogenate and was used for the estimation of various biochemical parameters. The microsomal protein concentration was estimated by the method of Lowry et al.[33]; while, the concentration of plasma and mammary TBARS was estimated by the earlier reported method, [35] and the concentration of plasma and mammary tissue LOOH were estimated by the previous method. Moreover, the activity of the antioxidant enzyme system, such as SOD, CAT, GPX, GSH, CYP450, Cyt-b5, GST and GR activity in plasma and mammary tissue were determined by the earlier method given elsewhere[37]–[43].

The mark [1] stands for this setting: DMBA rats, 5, 10, 15 mg/kg once a day.
Setting [2] is: liver and mammary tissues of DMBA treated animals.
[3] abbreviates: plasma and mammary tissues of DMBA treated animals.

For the compound `CCOC(=O)C1=C(C)N(c2nc(Nc3cccc(F)c3)nc(Nc3cccc(F)c3)n2)C(=S)NC1c1ccc(F)cc1` (stereo not shown) [7l, Ethyl 1-(4,6-bis((3-fluorophenyl)amino)-1,3,5-triazin-2-yl)-4-(4-fluorophenyl)-6-methyl-2-thioxo-1,2,3,4-tetrahydropyrimidine-5-carboxylate], under setting [1], the “Percentage of tumour incidence” value was “efficient in reducing the percentage of incidence of tumour” and the Tumour volume result was “significant reduction”. Besides, the “Body weight of experimental animals” value (DMBA rats, 5, 10, 15 mg/kg once a day, vs DMBA group) was “significantly improved”. Besides, under setting [2], the “Concentration of Phase I enzymes (CYP450 and Cyt-b5)” value is “marked decline”; the “Concentration of Phase II enzymes (GST and GR)” value is “significant upsurge”. Also, under setting [3], the “Antioxidant status (SOD, CAT, GSH, GPx)” value is given as “significant improvement”; the “Level of TBARS and LOOH (lipid peroxidation)” value is given as “significant reduction”.
